Columns and labels:
[1] = tested on: Phakopsora pachyrhizi (F129L); test: Protective control of soybean rust on soybeans (PHAKPA P2); format: in vivo; settings: soybean rust F129L; for % PHAKPA (F129L) Disease level P2 at 4 ppm: protective P2, 4 ppm; for % PHAKPA (F129L) Disease level P2 at 16 ppm: protective P2, 16 ppm
[2] = tested on: Phakopsora pachyrhizi (F129L); test: Protective control of soybean rust on soybeans (PHAKPA P6); format: in vivo; settings: soybean rust F129L; for % PHAKPA (F129L) Disease level P6 at 4 ppm: protective P6, 4 ppm; for % PHAKPA (F129L) Disease level P6 at 16 ppm: protective P6, 16 ppm

| SMILES | % PHAKPA (F129L) Disease level P2 at 4 ppm [1] [%] | % PHAKPA (F129L) Disease level P2 at 16 ppm [1] [%] | % PHAKPA (F129L) Disease level P6 at 4 ppm [2] [%] | % PHAKPA (F129L) Disease level P6 at 16 ppm [2] [%] |
| --- | --- | --- | --- | --- |
| CO/N=C(/C(=O)OC)c1cccc(C)c1CO/N=C(\C)c1cc(Cl)cc(C(F)(F)F)c1 [compound 33] | 50 | 33 | 60 | 75 |
| CO/N=C(/C(=O)OC)c1cccc(C)c1CO/N=C(\C)c1cc(C(F)(F)F)cc(C(F)(F)F)c1 [compound 34] | 100 | 90 | 90 | 83 |
| CNC(=O)/C(=N/OC)c1cccc(C)c1CO/N=C(\C)c1ccccc1C(F)(F)F [compound 38] | 37 | 4 | 47 | 1 |
| CNC(=O)/C(=N/OC)c1cccc(C)c1CO/N=C(\C)c1ccc(C(F)(F)F)cc1 [compound 39] | 30 | 4 | 15 | 2 |
| CO/N=C(/C(=O)OC)c1cccc(C)c1CO/N=C(\C)c1ccc(Cl)c(Cl)c1 [compound 40] | 40 | 18 | 63 | 22 |
| CNC(=O)/C(=N/OC)c1cccc(C)c1CO/N=C(\C)c1cccc(-c2cc(C)on2)c1 [compound 42] | 60 | 23 | 60 | 20 |
| CO/N=C(/C(=O)OC)c1cccc(C)c1CO/N=C(\C)c1cccc(-c2cc(C)on2)c1 [compound 43] | 100 | 100 | 97 | 87 |
| CNC(=O)/C(=N/OC)c1cccc(C)c1CO/N=C(\C)c1cccc(N2CC(F)(F)C2)c1 [compound 44] | 77 | 17 | 77 | 21 |
| CNC(=O)/C(=N/OC)c1cccc(C)c1CO/N=C(\C)c1cc(C#N)cc(C(F)(F)F)c1 [compound 46] | 63 | 50 | 90 | 57 |
| CNC(=O)/C(=N/OC)c1cccc(C)c1CO/N=C(\C)c1ccc(F)c(C(F)(F)F)c1 [compound 47] | 13 | 0 | 12 | 0 |
| CO/N=C(/C(=O)OC)c1cccc(C)c1CO/N=C(\C)c1cc(C#N)cc(C(F)(F)F)c1 [compound 48] | 100 | 80 | 100 | 67 |
| CO/N=C(/C(=O)OC)c1cccc(C)c1CO/N=C(\C)c1ccc(F)c(C(F)(F)F)c1 [compound 49] | 60 | 18 | 60 | 7 |
| CNC(=O)/C(=N/OC)c1cccc(C)c1CO/N=C(\C)c1cc(F)cc(C(F)(F)F)c1 [compound 50] | 2 | 1 | 6 | 0 |
| CO/N=C(/C(=O)OC)c1cccc(C)c1CO/N=C(\C)c1cc(F)cc(C(F)(F)F)c1 [compound 51] | 28 | 2 | 15 | 0 |
| CO/N=C(/C(=O)OC)c1cccc(C)c1CO/N=C(\C)c1cccc(C#CC(F)(F)F)c1 [compound 52] | 63 | 28 | 90 | 43 |
| C#Cc1cccc(/C(C)=N/OCc2c(C)cccc2/C(=N\OC)C(=O)OC)c1 [compound 53] | 63 | 17 | 100 | 47 |
| C#Cc1cccc(/C(C)=N/OCc2c(C)cccc2/C(=N\OC)C(=O)NC)c1 [compound 54] | 0 | 1 | 20 | 0 |
| C#Cc1cc(F)cc(/C(C)=N/OCc2c(C)cccc2/C(=N\OC)C(=O)NC)c1 [compound 55] | 3 | 1 | 13 | 5 |

| SMILES | % PHAKPA (F129L) Disease level P2 at 4 ppm [1] [%] | % PHAKPA (F129L) Disease level P2 at 16 ppm [1] [%] | % PHAKPA (F129L) Disease level P6 at 4 ppm [2] [%] | % PHAKPA (F129L) Disease level P6 at 16 ppm [2] [%] |
| --- | --- | --- | --- | --- |
| CNC(=O)/C(=N/OC)c1cccc(C)c1CO/N=C(\C)c1cccc(C#CC(F)(F)F)c1 [compound 57] | 25 | 8 | 43 | 15 |
| CO/N=C(/C(=O)OC)c1cccc(C)c1CO/N=C(\C)c1ccc(Cl)c(C(F)(F)F)c1 [compound 59] | 67 | 20 | 63 | 11 |
| CCc1cccc(/C(=N\OC)C(=O)OC)c1CO/N=C(\C)c1cccc(C(F)(F)F)c1 [compound 61] | 70 | 15 | 90 | 18 |
| CCc1cccc(/C(=N\OC)C(=O)NC)c1CO/N=C(\C)c1cccc(C(F)(F)F)c1 [compound 62] | 43 | 0 | 60 | 3 |
| CO/N=C(/C(=O)OC)c1cccc(C)c1CO/N=C(\C)c1ccc(-c2cc(C)on2)cc1 [compound 63] | 90 | 77 | 93 | 77 |
| CNC(=O)/C(=N/OC)c1cccc(C)c1CO/N=C(\C)c1ccc(-c2cc(C)on2)cc1 [compound 64] | 87 | 73 | 80 | 43 |
| CO/N=C(/C(=O)OC)c1cccc(C)c1CO/N=C(\C)c1cc(C)cc(C(F)(F)F)c1 [compound 65] | 93 | 77 | 100 | 87 |
| CO/N=C(/C(=O)OC)c1cccc(C)c1CO/N=C(\C)c1cccc(-c2noc(C(F)(F)F)n2)c1 [compound 66] | 100 | 70 | 93 | 87 |
| CNC(=O)/C(=N/OC)c1cccc(C)c1CO/N=C(\C)c1cccc(-c2noc(C(F)(F)F)n2)c1 [compound 67] | 67 | 2 | 80 | 30 |
| CNC(=O)/C(=N/OC)c1cccc(C)c1CO/N=C(\C)c1cccc(C(F)(F)F)c1F [compound 69] | 2 | 0 | 13 | 0 |
| CO/N=C(/c1cccc(/C(C)=N/OCc2c(C)cccc2/C(=N\OC)C(=O)OC)c1)C(F)(F)F [compound 70] | 30 | 0 | 10 | 1 |
| CNC(=O)/C(=N/OC)c1cccc(C)c1CO/N=C(\C)c1cccc(/C(=N/OC)C(F)(F)F)c1 [compound 71] | 2 | 0 | 6 | 0 |
| CO/N=C(/C(=O)OC)c1cccc(C)c1CO/N=C(/c1ccccc1)C(F)F [compound 72] | 100 | 87 | 93 | 80 |
| CO/N=C(/C(=O)OC)c1cccc(C)c1CO/N=C(\C)c1cccc(C2CC2(Cl)Cl)c1 (stereo not drawn) [compound 74] | 27 | 6 | 16 | 3 |
| CNC(=O)/C(=N/OC)c1cccc(C)c1CO/N=C(\C)c1cccc(C2CC2(Cl)Cl)c1 (stereo not drawn) [compound 75] | 8 | 0 | 13 | 1 |
| CO/N=C(/C(=O)OC)c1cccc(C)c1CO/N=C(\C)c1cccc(OC)c1 [compound 78] | 40 | 1 | 30 | 1 |
| CNC(=O)/C(=N/OC)c1cccc(C)c1CO/N=C(\C)c1cccc(OC)c1 [compound 79] | 21 | 2 | 44 | 4 |
| CO/N=C(/C(=O)OC)c1cccc(C)c1CO/N=C(\C)c1cccc(OC(F)F)c1 [compound 80] | 50 | 10 | 30 | 3 |
